Values after ≈ are worked out from the molar mass of the structure shown. Like-named read-outs stand apart in the source and are kept apart here. Numbered stars: 1 amine (or outer) side, 2 acyl side, 3 side chain; on linkers, the order of the positions; unused ones are H or OH. Bridge positions count the residues as written; N and C are the ends. Peptide text beside a SMILES is read from it. * marks the point of attachment. C20 diacid = O=C(O)CCCCCCCCCCCCCCCCCCC(=O)*; γGlu = O=C(O)[C@H](CCC(=O)[*:2])N[*:1]

One series concerns the target T1, rat calcitonin receptor (Rattus norvegicus, UniProt P32214).
T1 construct: expressed in transfected cells; host or cells: BHK tk'ts 13 (transient, FuGENE 6), membranes
T1 sequence (P32214 25-479 isoform P32214-2 limits assumed): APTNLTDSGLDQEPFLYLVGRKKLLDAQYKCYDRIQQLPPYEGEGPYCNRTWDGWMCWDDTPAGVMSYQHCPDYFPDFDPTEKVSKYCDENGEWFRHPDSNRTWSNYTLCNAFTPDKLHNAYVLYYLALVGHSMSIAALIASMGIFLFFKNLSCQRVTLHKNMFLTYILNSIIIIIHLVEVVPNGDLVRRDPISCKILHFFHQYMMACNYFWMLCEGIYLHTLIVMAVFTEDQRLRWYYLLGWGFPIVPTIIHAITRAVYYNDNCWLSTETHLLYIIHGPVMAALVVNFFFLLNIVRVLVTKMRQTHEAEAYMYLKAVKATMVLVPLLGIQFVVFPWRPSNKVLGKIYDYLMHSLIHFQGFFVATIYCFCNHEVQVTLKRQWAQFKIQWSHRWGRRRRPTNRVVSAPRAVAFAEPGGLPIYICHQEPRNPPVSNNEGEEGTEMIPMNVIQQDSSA
Description: ASSAY (VIII) binding to the rat calcitonin receptor. To be noted: Table 7, read-out: rCTR bind IC50. The gist of the method:
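Membranes were prepared from BHK tk′ts 13 cells transiently transfected with rat calcitonin receptor. Cells were grown in DMEM with 10% FBS and harvested approximately 48 hours after transfection.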

Series [1] is described as follows: ASSAY (IV) determination of solubility. It is filed as physicochemical. The gist of the method:
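Polypeptide in water at […] mixed 1:1 with 100 mM buffers of pH 3.0-8.0 (glycylglycine pH 3-5, bistrispropane pH 6-8). Held 18 h at room temperature, then centrifuged; concentration remaining in solution measured by UPLC.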

The target in series [2] is T2, rat amylin receptor (rat calcitonin receptor + rat RAMP 3) (Rattus norvegicus, UniProt P32214+Q9JJ73).
T2 construct: expressed in transfected cells; host or cells: BHK tk'ts 13 (transient, FuGENE 6), membranes
T2 sequence (P32214 25-479 isoform P32214-2 limits assumed): T1 sequence (P32214 25-479 isoform P32214-2 limits assumed)
T2 sequence (Q9JJ73 23-147 partner): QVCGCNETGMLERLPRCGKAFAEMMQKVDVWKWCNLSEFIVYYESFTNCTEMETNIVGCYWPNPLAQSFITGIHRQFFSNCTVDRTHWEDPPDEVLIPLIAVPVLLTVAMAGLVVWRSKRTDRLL
Description: ASSAY (VI) binding to the rat amylin receptor. As to conditions: for IC50: binding to rat amylin receptor, read-out: rAmylin-R bind IC50. In a few lines:
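This assay measured binding to the rat amylin receptor. BHK tk′ts 13 cells were transiently transfected with the rat calcitonin receptor using FuGENE® 6 (Roche), following the manufacturer's recommendations. About 48 hours after transfection, the cells were harvested and membranes were prepared from them for the binding determination.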

The mark [3] stands for this setting: bistrispropane buffer, pH 6.5, read-out: Solubility pH 6.5 Concentration.
[4] abbreviates: bistrispropane buffer, pH 7.5, read-out: Solubility pH 7.5 Concentration.
Where [5] appears, read: bistrispropane buffer, pH 6.0, read-out: Solubility pH 6.0 Concentration.
[6] abbreviates: bistrispropane buffer, pH 7.0, read-out: Solubility pH 7.0 Concentration.
Where [7] appears, read: bistrispropane buffer, pH 8.0, read-out: Solubility pH 8.0 Concentration.
Where [8] appears, read: glycylglycine buffer, pH 3.0, read-out: Solubility pH 3.0 Concentration.
Where [9] appears, read: glycylglycine buffer, pH 4.0, read-out: Solubility pH 4.0 Concentration.
Where [10] appears, read: glycylglycine buffer, pH 5.0, read-out: Solubility pH 5.0 Concentration.
The mark [11] stands for this setting: Table 7, rat binding selectivity, rCTR IC50 / rAmylin-R IC50.
Setting [12] is: Table 7a (preferred compounds), rat binding selectivity, rCTR IC50 / rAmylin-R IC50.
Setting [13] is: ratio of rCTR bind IC50 to rAmylin-R bind IC50.

One may read the IC50 as the midpoint of a concentration-inhibition curve. For `CC[C@H](C)[C@H](NC(=O)[C@H](C)NC(=O)CNC(=O)[C@H](Cc1ccccc1)NC(=O)[C@H](CC(N)=O)NC(=O)[C@@H]1CCCN1C(=O)[C@H](CO)NC(=O)[C@H](CO)NC(=O)[C@H](Cc1c[nH]cn1)NC(=O)[C@H](CCCNC(=N)N)NC(=O)[C@H](CC(C)C)NC(=O)[C@H](Cc1ccccc1)NC(=O)[C@H](CC(N)=O)NC(=O)[C@H](C)NC(=O)[C@H](CC(C)C)NC(=O)[C@H](CCCNC(=N)N)NC(=O)[C@H](CCC(N)=O)NC(=O)[C@@H](NC(=O)[C@H](C)NC(=O)[C@@H]1CSSC[C@H](NC(=O)[C@H](CCCCN)NC(=O)CC[C@H](NC(=O)CCCCCCCCCCCCCCCCCCC(=O)O)C(=O)O)C(=O)N[C@@H](CC(N)=O)C(=O)N[C@@H]([C@@H](C)O)C(=O)N[C@@H](C)C(=O)N[C@@H]([C@@H](C)O)C(=O)N1)[C@@H](C)O)C(=O)N1CCC[C@H]1C(=O)N[C@@H](CO)C(=O)N[C@@H](CO)C(=O)N[C@H](C(=O)N[C@@H](CC(N)=O)C(=O)N[C@H](C(=O)NCC(=O)N1CCC[C@H]1C(=O)N[C@@H](CCC(=O)O)C(=O)N[C@H](C(=O)N[C@@H](Cc1ccc(O)cc1)C(N)=O)[C@@H](C)O)C(C)C)[C@@H](C)O` [Example 29] ({C20 diacid-γGlu}-KCNTATCATQRLANFLRHSSPNFGAIPSSTNVGPETY-NH2; disulfide 2-7), the IC50 on rat calcitonin receptor turned out to be 21.6 nM; in series [2] (Table 7), 0.322 nM. Also, the solubility at 18 h in series [1] (setting [3]), in series [1] (setting [4]), in series [1] (setting [5]), in series [1] (setting [6]), in series [1] (setting [7]) and in series [1] (setting [8]) was not below 200 µM throughout. In addition, the solubility at 18 h in series [1] (setting [9]) and in series [1] (setting [10]) was not below 200 µM throughout. Further, the “Ratio rCT/rAmylin binding” value in series [2] (setting [11]), in series [2] (setting [12]) and in series [2] (setting [13]) was 67.0 throughout.

For `CC[C@H](C)[C@H](NC(=O)[C@H](C)NC(=O)CNC(=O)[C@H](Cc1ccccc1)NC(=O)[C@H](CC(N)=O)NC(=O)[C@@H]1CCCN1C(=O)[C@H](CO)NC(=O)[C@H](CO)NC(=O)[C@H](Cc1c[nH]cn1)NC(=O)[C@H](CCCNC(=N)N)NC(=O)[C@H](CC(C)C)NC(=O)[C@H](Cc1ccccc1)NC(=O)[C@H](CCC(=O)O)NC(=O)[C@H](C)NC(=O)[C@H](CC(C)C)NC(=O)[C@H](CCCNC(=N)N)NC(=O)[C@H](CCC(N)=O)NC(=O)[C@@H](NC(=O)[C@H](C)NC(=O)[C@@H]1CSSC[C@H](NC(=O)[C@H](CCCCN)NC(=O)CC[C@H](NC(=O)CCCCCCCCCCCCCCCCCCC(=O)O)C(=O)O)C(=O)N[C@@H](CC(N)=O)C(=O)N[C@@H]([C@@H](C)O)C(=O)N[C@@H](C)C(=O)N[C@@H]([C@@H](C)O)C(=O)N1)[C@@H](C)O)C(=O)N1CCC[C@H]1C(=O)N[C@@H](CO)C(=O)N[C@@H](CO)C(=O)N[C@H](C(=O)N1CCC[C@H]1C(=O)N[C@H](C(=O)NCC(=O)N[C@@H](CO)C(=O)N[C@@H](CC(N)=O)C(=O)N[C@H](C(=O)N[C@@H](Cc1ccc(O)cc1)C(N)=O)[C@@H](C)O)C(C)C)[C@@H](C)O` [Example 31] ({C20 diacid-γGlu}-KCNTATCATQRLAEFLRHSSPNFGAIPSSTPVGSNTY-NH2; disulfide 2-7 (inferred)), the half-maximal inhibitory concentration (IC50) at rat calcitonin receptor turned out to be 26.5 nM; in series [2] (Table 7) it was 0.619 nM. In addition, the solubility at 18 h in series [1] (setting [3]), in series [1] (setting [4]), in series [1] (setting [5]), in series [1] (setting [6]), in series [1] (setting [7]) and in series [1] (setting [8]) was not below 200 µM in each case. Further, the solubility at 18 h in series [1] (setting [9]) and in series [1] (setting [10]) was not below 200 µM each time. The “Ratio rCT/rAmylin binding” value in series [2] (setting [11]), in series [2] (setting [12]) and in series [2] (setting [13]) was 42.8 each time.

For `CC[C@H](C)[C@H](NC(=O)[C@H](C)NC(=O)CNC(=O)[C@H](Cc1ccccc1)NC(=O)[C@H](CC(N)=O)NC(=O)[C@@H]1CCCN1C(=O)[C@H](CO)NC(=O)[C@H](CO)NC(=O)[C@H](Cc1c[nH]cn1)NC(=O)[C@H](CCCNC(=N)N)NC(=O)[C@H](CC(C)C)NC(=O)[C@H](Cc1ccccc1)NC(=O)[C@H](CCC(=O)O)NC(=O)[C@H](C)NC(=O)[C@H](CC(C)C)NC(=O)[C@H](CCCNC(=N)N)NC(=O)[C@H](CCC(N)=O)NC(=O)[C@@H](NC(=O)[C@H](C)NC(=O)[C@@H]1CSSC[C@H](NC(=O)[C@H](CCCCN)NC(=O)CC[C@H](NC(=O)CCCCCCCCCCCCCCCCCCC(=O)O)C(=O)O)C(=O)N[C@@H](CC(N)=O)C(=O)N[C@@H]([C@@H](C)O)C(=O)N[C@@H](C)C(=O)N[C@@H]([C@@H](C)O)C(=O)N1)[C@@H](C)O)C(=O)N1CCC[C@H]1C(=O)N[C@@H](CO)C(=O)N[C@@H](CO)C(=O)N[C@H](C(=O)N[C@@H](CC(N)=O)C(=O)N[C@H](C(=O)NCC(=O)N[C@@H](CCCCN)C(=O)N[C@@H](CC(N)=O)C(=O)N[C@H](C(=O)N[C@@H](Cc1ccc(O)cc1)C(N)=O)[C@@H](C)O)C(C)C)[C@@H](C)O` [Example 36] ({C20 diacid-γGlu}-KCNTATCATQRLAEFLRHSSPNFGAIPSSTNVGKNTY-NH2; disulfide 2-7 (inferred)), the half-inhibitory concentration (IC50) was 60.1 nM at rat calcitonin receptor and 1.86 nM in series [2] (Table 7). Moreover, the solubility at 18 h in series [1] (setting [3]), in series [1] (setting [4]), in series [1] (setting [5]), in series [1] (setting [6]), in series [1] (setting [7]) and in series [1] (setting [8]) was not below 200 µM each time. Also, the solubility at 18 h in series [1] (setting [9]) and in series [1] (setting [10]) was not below 200 µM throughout. In addition, the “Ratio rCT/rAmylin binding” value in series [2] (setting [11]), in series [2] (setting [12]) and in series [2] (setting [13]) was 32.4 in each case.

In the case of `CC[C@H](C)[C@H](NC(=O)[C@H](C)NC(=O)CNC(=O)[C@H](Cc1ccccc1)NC(=O)[C@H](CC(N)=O)NC(=O)[C@@H]1CCCN1C(=O)[C@H](CO)NC(=O)[C@H](CO)NC(=O)[C@H](Cc1c[nH]cn1)NC(=O)[C@H](CCCNC(=N)N)NC(=O)[C@H](CC(C)C)NC(=O)[C@H](Cc1ccccc1)NC(=O)[C@H](CC(N)=O)NC(=O)[C@H](C)NC(=O)[C@H](CC(C)C)NC(=O)[C@H](CCCNC(=N)N)NC(=O)[C@H](CCC(N)=O)NC(=O)[C@@H](NC(=O)[C@H](C)NC(=O)[C@@H]1CSSC[C@H](NC(=O)[C@H](CCCNC(=N)N)NC(=O)CNC(=O)CC[C@H](NC(=O)CCCCCCCCCCCCCCCCCCC(=O)O)C(=O)O)C(=O)N[C@@H](CC(N)=O)C(=O)N[C@@H]([C@@H](C)O)C(=O)N[C@@H](C)C(=O)N[C@@H]([C@@H](C)O)C(=O)N1)[C@@H](C)O)C(=O)N1CCC[C@H]1C(=O)N[C@@H](CO)C(=O)N[C@@H](CO)C(=O)N[C@H](C(=O)N[C@@H](CC(N)=O)C(=O)N[C@H](C(=O)NCC(=O)N[C@@H](CO)C(=O)N[C@@H](CC(N)=O)C(=O)N[C@H](C(=O)N[C@@H](Cc1ccc(O)cc1)C(N)=O)[C@@H](C)O)C(C)C)[C@@H](C)O` [Example 46] ({C20 diacid-γGlu}-GRCNTATCATQRLANFLRHSSPNFGAIPSSTNVGSNTY-NH2; disulfide 3-8 (inferred)), the 50% inhibitory concentration (IC50) was 46.8 nM at rat calcitonin receptor and 0.33 nM in series [2] (Table 7). Also, the solubility at 18 h was not below 200 µM in series [1] (setting [3]); 106 µM (≈ 473 µg/mL) in series [1] (setting [4]); not below 200 µM in series [1] (setting [5]); 186 µM (≈ 831 µg/mL) in series [1] (setting [6]); 145 µM (≈ 648 µg/mL) in series [1] (setting [7]); not below 200 µM in series [1] (setting [8]). The solubility at 18 h in series [1] (setting [9]) and in series [1] (setting [10]) was not below 200 µM each time. Moreover, the “Ratio rCT/rAmylin binding” value in series [2] (setting [11]), in series [2] (setting [12]) and in series [2] (setting [13]) was 141.8 in each case.

The values are drawn from patent US9023789B2, “Amylin analogs and pharmaceutical compositions thereof” (Novo Nordisk A/S, priority 2012, dated 2015).
